Measured values published in patent publication US20090196930A1, “AEROSOLIZED NITRITE AND NITRIC OXIDE -DONATING COMPOUNDS AND USES THEREOF” (Aires Pharmaceuticals, Inc., priority 2007, published 2009).
Where two headings read alike, the source gives them in different places.

Columns and labels:
[1] = system: monocrotaline-induced pulmonary hypertension; details: for RV:LV + S: MCT 50 mg/kg sc, three times per week for four weeks
[2] = in vivo; details: rat, plasma
Experimental: Rats (n=3-4/group, ˜400 gm) were anesthetized with Isoflorane and the dry powder was insufflated intratracheally using a Penn-Century Insufflator (model DP-4: Philadelphia, Pa.). Blood was collected in heparinized tubes just prior to dosing, 5, 15, 30 and 60 minutes after dosing, immediately put on wet ice and then centrifuged at 13,000 rpm in a microcentrifuge for 45 sec. Plasma was harvested and frozen at −80° C. until analysis.

[3] = system: normal, healthy volunteers; details: human, device loaded sodium nitrite
Experimental: Vial 3 contained 0.1 mM sodium phosphate only. In the preliminary dose escalation to the maximum tolerated dose (MTD), immediately prior to administration, an equal portion of Vial 1 and Vial 2 were admixed and then diluted with Vial 3 contents as appropriate to achieve lower concentration dosing solutions for the dose-escalation protocol. Following establishment of the Vial 1+Vial 2 admixed test material MTD, additional dosing cohorts of 3 subjects were enrolled at the Vial 1+Vial 2 MTD, using Vial 3-diluted Vial 1 contents only.
Each subject also received vehicle control. The nebulizer used for this study was the Aerogen Idehaler. The Aerogen Idehaler is a combination of two units. The nebulization head is the Aeroneb® Solo (Aerogen, Galway, Ireland) and the aerosol-reservoir attachment Idehaler™ (Diffusion Technique Francais, Saint Etienne, France).

[4] = system: Isolated rabbit lungs
[5] = system: hypoxia-induced pulmonary hypertension; details: cited from earlier work
[6] = system: beagle dogs; test: 7-day inhalation dose range finding toxicology, dog; type: in vivo
Experimental: Results & Discussion (Dogs). […] Dogs were exposed to either vehicle (citric acid/saccharin/sodium phosphate buffer), or Formulation I Inhalation Solution prepared in identical vehicle to achieve target doses of 2, 10 or 44 mg/kg/day for 7 days (Table 21). Administered doses were 2, 12 and 54 mg/kg/day. […] Methemoglobin levels in blood increased appreciably in the high-dose group and minimally above basal levels in the mid-dose group (Table 23). Gross necropsies of the treated groups were in general similar to controls which included the presence of small red foci in the lung area, were few in nature and not associated with a dose responsive test-article relationship. Histopathology included mild focal pneumonia with minimal to mild focal peribronchiolar/perivascular mononuclear cell infiltrate and minimal to mild focal alveolar mixed cell infiltrate in the lungs of both the vehicle and high dose groups (low- and mid-dose groups not examined). M/E ratios were decreased in high-dose group males. […] Therefore, based on the transient changes during this 7 day study, an NOAEL of 12 mg/kg/day was established.

[7] = system: Sprague-Dawley rats; test: 7-day inhalation dose range finding toxicology, rat
Experimental: Formulations. […] The formulations defined below were titrated by nebulization time to achieve the dose levels define in Table 21.
Results & Discussion (Rats). A 7-Day range-finding study with nebulized Formulation I Inhalation Solution was performed via inhalation through the nose of male and female Sprague-Dawley rats.

[8] = system: monocrotaline-induced pulmonary hypertension; test: Monocrotaline model of pulmonary hypertension, inhaled nebulized liquid sodium nitrite; details: rat, 5 μg/kg liquid aerosol
[9] = in vivo; details: male, Sprague-Dawley, rat, plasma, 10 mg/kg; for half-life: T1/2, rat
[10] = Experimental: High concentrations permit reduced administration times (important for patient compliance), but suffer in that their associated osmolality and intense taste may mitigate this advantage. […] Nebulized solutions were inhaled to a shallow throat level and analyzed for: taste (saltiness), throat irritation, and sore throat. […] Sodium chloride is also considered in the art as helpful to alleviate cough. Therefore, this was also tested.
Summary. […] Finally, because viscosity and surface tension can be important contributors to optimal I-neb (Respironics, Inc., Murrysville, Pa.), Aerogen Aeroneb Go (Aerogen, Inc., Galway, Ireland) or other vibrating mesh nebulizer performance, potential formulations were screened in these devices to measure the effect of formulation on device output rate and aerosol particle size.

[11] = inhaled or intranasal, 90 ug/kg
[12] = inhaled or intranasal, 700 ug/kg
[13] = 101 mg/kg/day inhaled (dose lowered after day 1)
[14] = high dose group after lowering of dose, printed (76)
[15] = inhaled or intranasal, IT (dry powder, normalized to 10 mg/kg)
[16] = inhaled or intranasal, IT (liquid, 10 mg/kg)

O=NO [sodium nitrite]
RV:LV + S ([1]; dry powder 1 μg/kg intratracheal): 0.363 ± 0.029
RV:LV + S ([1]; dry powder 10 μg/kg intratracheal): 0.328 ± 0.025
decrease of RV:LV+S ([1]; high dose (10 μg/kg), p<0.05): up to 48%
AUC [2, 11]: 15.8 ng·h/mL
Cmax [2, 11]: 1.8 µM
Tmax [2, 11]: 5 min
half-life [2, 11]: 4 min
AUC [2, 12]: 292 ng·h/mL
Cmax [2, 12]: 25.8 µM
Tmax [2, 12]: 5 min
half-life [2, 12]: 10 min
Cmax ([2]; other: intratracheal insufflation of dry powder, 10 ug/kg): ~0.2 µM
well tolerated doses [3]: less than or equal to 125 mg
hypoxia-induced elevated PAP ([4]; 16.7 mg/mL sodium nitrite in phosphate buffer or phosphate/citric acid buffer, 5 min nebulization): significantly reduced
expired nitric oxide compared to control ([4]; both sodium nitrite preparations (phosphate buffer; citric acid/phosphate buffer)): significantly increased
lung-delivered dose up to which lung weights (edema) were stable ([4]; mg sodium nitrite (2.8 mg nitrite)): up to 4.2 mg
decrease of PAP compared with pre-drug hypoxic challenge ([4]; sodium nitrite in phosphate buffer or citric acid/phosphate buffer, nebulized during second hypoxic challenge (3% oxygen), p<0.05): over 50%
half life of effect on hypoxia-induced PAP ([4]; sodium nitrite in phosphate buffer, nebulized during third hypoxic challenge): ~10 min
NO in expired air, peak ([5]; after 20 minutes inhalation): approximately 15 ppb
reduction in hypoxia-induced pulmonary hypertension compared with saline nebulization ([5]; newborn lambs, inhaled nitrite 15 mg/minute): approximately 65%
minimal effective dose ([5]; newborn lambs): 1.5 mg/min
time reduction in PAP was maintained after cessation of inhalation ([5]; newborn lambs): at least 1 hour
Mortality (%) Female ([6]; 2 mg/kg/day inhaled): 0%
Mortality (%) Male ([6]; 2 mg/kg/day inhaled): 0%
Peak MetHgb (%) On Day 1 Female ([6]; 2 mg/kg/day inhaled): 0.35 ± 0.4%
Peak MetHgb (%) On Day 1 Male ([6]; 2 mg/kg/day inhaled): 0.2 ± 0.1%
Peak MetHgb (%) On Day 7 Female ([6]; 2 mg/kg/day inhaled): 0.2 ± 0.0%
Peak MetHgb (%) On Day 7 Male ([6]; 2 mg/kg/day inhaled): 0.2 ± 0.0%
Mortality (%) Female ([6]; 12 mg/kg/day inhaled): 0%
Mortality (%) Male ([6]; 12 mg/kg/day inhaled): 0%
Peak MetHgb (%) On Day 1 Female ([6]; 12 mg/kg/day inhaled): 3.4 ± 1.3%
Peak MetHgb (%) On Day 1 Male ([6]; 12 mg/kg/day inhaled): 2.6 ± 0.5%
Peak MetHgb (%) On Day 7 Female ([6]; 12 mg/kg/day inhaled): 1.6 ± 0.2%
Peak MetHgb (%) On Day 7 Male ([6]; 12 mg/kg/day inhaled): 2.1 ± 0.5%
Mortality (%) Female ([6]; 54 mg/kg/day inhaled): 0%
Mortality (%) Male ([6]; 54 mg/kg/day inhaled): 0%
Peak MetHgb (%) On Day 1 Female ([6]; 54 mg/kg/day inhaled): 19 ± 0.5%
Peak MetHgb (%) On Day 1 Male ([6]; 54 mg/kg/day inhaled): 16 ± 5.2%
Peak MetHgb (%) On Day 7 Female ([6]; 54 mg/kg/day inhaled): 17 ± 2.6%
Peak MetHgb (%) On Day 7 Male ([6]; 54 mg/kg/day inhaled): 16 ± 3.2%
% of particles < 3 μm ([6]; Group 2 Low Dose): 86.2%
MMAD ([6]; Group 2 Low Dose): 1.2 μm
% of particles < 3 μm ([6]; Group 3 Mid Dose): 73.9%
MMAD ([6]; Group 3 Mid Dose): 1.7 μm
% of particles < 3 μm ([6]; Group 4 High Dose): 73.3%
MMAD ([6]; Group 4 High Dose): 1.9 μm
Mortality (%) Female ([7]; 4 mg/kg/day inhaled): 0%
Mortality (%) Male ([7]; 4 mg/kg/day inhaled): 0%
Peak MetHgb (%) On Day 1 Female ([7]; 4 mg/kg/day inhaled): 1.0 ± 0.1%
Peak MetHgb (%) On Day 1 Male ([7]; 4 mg/kg/day inhaled): 1.0 ± 0.0%
Peak MetHgb (%) On Day 7 Female ([7]; 4 mg/kg/day inhaled): 1.3 ± 0.1%
Peak MetHgb (%) On Day 7 Male ([7]; 4 mg/kg/day inhaled): 1.0 ± 0.0%
Mortality (%) Female ([7]; 18 mg/kg/day inhaled): 0%
Mortality (%) Male ([7]; 18 mg/kg/day inhaled): 0%
Peak MetHgb (%) On Day 1 Female ([7]; 18 mg/kg/day inhaled): 4.5 ± 1.2%
Peak MetHgb (%) On Day 1 Male ([7]; 18 mg/kg/day inhaled): 3.4 ± 0.3%
Peak MetHgb (%) On Day 7 Female ([7]; 18 mg/kg/day inhaled): 3.8 ± 0.6%
Peak MetHgb (%) On Day 7 Male ([7]; 18 mg/kg/day inhaled): 2.3 ± 0.2%
Peak MetHgb (%) On Day 1 Female ([7]; 101 mg/kg/day inhaled): 50 ± 3.0%
Peak MetHgb (%) On Day 1 Male ([7]; 101 mg/kg/day inhaled): 41 ± 3.3%
Mortality (%) Female [7, 13]: 30%
Mortality (%) Male [7, 13]: 0%
% of particles < 3 μm ([7]; Group 2 Low Dose): 97.6%
MMAD ([7]; Group 2 Low Dose): 1.0 μm
% of particles < 3 μm ([7]; Group 3 Mid Dose): 87.6%
MMAD ([7]; Group 3 Mid Dose): 1.4 μm
% of particles < 3 μm ([7]; Group 4 High Dose): 78.5%
MMAD ([7]; Group 4 High Dose): 1.7 μm
Peak MetHgb (%) On Day 7 Female [7, 14]: 36 ± 3.0 %
Peak MetHgb (%) On Day 7 Male [7, 14]: 16 ± 4.7 %
plasma nitrite, extrapolated [8]: ~0.1 µM
AUC [9, 15]: 4270 ng·h/mL
AUC [9, 16]: 2820 ng·h/mL
Cmax [9, 15]: 172 µM
Cmax [9, 16]: 164 µM
half-life [9, 15]: 19 min
half-life [9, 16]: 10 min
Tmax [9, 15]: 5 min
Tmax [9, 16]: 15 min
AUC ([9]; iv, IV (10 mg/kg)): 8120 ng·h/mL
Cmax ([9]; iv, IV (10 mg/kg)): 312 µM
half-life ([9]; iv, IV (10 mg/kg)): 20 min
Tmax ([9]; iv, IV (10 mg/kg)): 5 min
level of nitric oxide produced ([10]; 75 mg/mL sodium nitrite, 1.56 mM citric acid, […] sodium saccharin, pH 5.41 admixed dosing solution): ~200 parts per billion
nitric oxide produced and released ([10]; aqueous sodium nitrite titrated with citric acid): ~200 parts per billion
nitric oxide relative to same formulation lacking ascorbic acid ([10]; citric acid, pH ~5.5, 1:256 molar ratio ascorbic acid to nitrite): ~4 fold
nitric oxide produced and released upon vibrating mesh nebulization ([10]; nitrite:ascorbic acid 256:1 mixture, Aeroneb Go Lab): ~800 ppb
level of nitric oxide produced ([10]; same dosing solution in the absence of citric acid): ~150 parts per billion
level of nitric oxide produced ([10]; same formulation with ascorbic acid): ~800 parts per billion
